Test results as given in US11084800B2 (Achillion Pharmaceuticals, Inc., priority 2017, dated 2021).

biological target: Human Factor D (Homo sapiens (Human), UniProt P00746); assay: Human Factor D Assay; format: biochemical; settings: Factor D inhibition, assay of Example 10; read-out: IC5 (Stars)
Summary of the method: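 Serum-purified Factor D (80 nM final) preincubated 5 min at room temperature with compound in 50 mM Tris, 1 M NaCl, pH 7.5. Z-L-Lys-SBz and DTNB added at 100 μM each; A405 followed every 30 s for 30 min. IC50 from nonlinear regression of rates versus concentration.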

Chain of Human Factor D (P00746 26-253): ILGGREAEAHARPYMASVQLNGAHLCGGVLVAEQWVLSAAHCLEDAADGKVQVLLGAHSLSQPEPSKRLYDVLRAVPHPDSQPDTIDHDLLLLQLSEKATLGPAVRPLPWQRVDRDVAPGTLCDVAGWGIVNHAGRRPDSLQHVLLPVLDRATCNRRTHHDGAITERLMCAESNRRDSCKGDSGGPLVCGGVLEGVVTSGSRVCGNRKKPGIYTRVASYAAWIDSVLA

Compound | IC50 [µM]
CC(=O)c1nn(CC(=O)N2[C@H](C(=O)Nc3nc(Br)ccc3C)C[C@@]3(CN4CCC[C@H]4C(=O)O)C[C@@H]23)c2c(C)cc(-c3cnc(C)nc3)cc12 [Compound 299, (((1R,3S,5R)-2-(2-(3-acetyl-7-methyl-5-(2-methylpyrimidin-5-yl)-1H-indazol-1-yl)acetyl)-3-((6-bromo-3-methylpyridin-2-yl)carbamoyl)-2-azabicyclo[3.1.0]hexan-5-yl)methyl)-L-proline] | < 1
CC(=O)c1nn(CC(=O)N2[C@H](C(=O)Nc3nc(Br)ccc3C)C[C@@]3(CNC(C)(C)C)C[C@@H]23)c2c(C)cc(-c3cnc(C)nc3)cc12 [Compound 300, (1R,3S,5R)-2-(2-(3-acetyl-7-methyl-5-(2-methylpyrimidin-5-yl)-1H-indazol-1-yl)acetyl)-N-(6-bromo-3-methylpyridin-2-yl)-5-((tert-butylamino)methyl)-2-azabicyclo[3.1.0]hexane-3-carboxamide] | < 1
CC(=O)c1nn(CC(=O)N2[C@H](C(=O)Nc3nc(Br)ccc3CN3C(C)(C)CCCC3(C)C)C[C@@]3(C)C[C@@H]23)c2ccc(-c3cnc(C)nc3)cc12 [Compound 302, (1R,3S,5R)-2-(2-(3-acetyl-5-(2-methylpyrimidin-5-yl)-1H-indazol-1-yl)acetyl)-N-(6-bromo-3-((2,2,6,6-tetramethylpiperidin-1-yl)methyl)pyridin-2-yl)-5-methyl-2-azabicyclo[3.1.0]hexane-3-carboxamide] | < 1
CC(=O)c1nn(CC(=O)N2C[C@@](F)(Cn3ccnn3)C[C@H]2C(=O)Nc2nc(Br)ccc2C)c2ccc(-c3cnc(C)nc3)cc12 [Compound 304, (2S,4R)-4-((1H-1,2,3-triazol-1-yl)methyl)-1-(2-(3-acetyl-5-(2-methylpyrimidin-5-yl)-1H-indazol-1-yl)acetyl)-N-(6-bromo-3-methylpyridin-2-yl)-4-fluoropyrrolidine-2-carboxamide] | < 1
CC(=O)c1nn(CC(=O)N2[C@H](C(=O)Nc3nc(Br)ccc3C)C[C@@]3(CN4CCOCC4)C[C@@H]23)c2c(C)cc(-c3cnc(C)nc3)cc12 [Compound 305, (1R,3S,5R)-2-(2-(3-acetyl-7-methyl-5-(2-methylpyrimidin-5-yl)-1H-indazol-1-yl)acetyl)-N-(6-bromo-3-methylpyridin-2-yl)-5-(morpholinomethyl)-2-azabicyclo[3.1.0]hexane-3-carboxamide] | < 1
CC(=O)c1nn(CC(=O)N2[C@H](C(=O)Nc3nc(Br)ccc3C)C[C@@]3(CN4CCC(F)(F)CC4)C[C@@H]23)c2c(C)cc(-c3cnc(C)nc3)cc12 [Compound 306, (1R,3S,5R)-2-(2-(3-acetyl-7-methyl-5-(2-methylpyrimidin-5-yl)-1H-indazol-1-yl)acetyl)-N-(6-bromo-3-methylpyridin-2-yl)-5-((4,4-difluoropiperidin-1-yl)methyl)-2-azabicyclo[3.1.0]hexane-3-carboxamide] | < 1
CC(=O)c1nn(CC(=O)N2[C@H](C(=O)Nc3nc(Br)ccc3C)C[C@@]3(CNC(C)(C)C)C[C@@H]23)c2ccc(-c3cnc(C)nc3)cc12 [Compound 307, (1R,3S,5R)-2-(2-(3-acetyl-5-(2-methylpyrimidin-5-yl)-1H-indazol-1-yl)acetyl)-N-(6-bromo-3-methylpyridin-2-yl)-5-((tert-butylamino)methyl)-2-azabicyclo[3.1.0]hexane-3-carboxamide] | < 1
CC(=O)c1nn(CC(=O)N2[C@H](C(=O)Nc3nc(Br)ccc3CN3CC4CCC3C4)C[C@@]3(C)C[C@@H]23)c2ccc(-c3cnc(C)nc3)cc12 (stereo partly drawn) [Compound 308, (1R,3S,5R)-N-(3-(2-azabicyclo[2.2.1]heptan-2-ylmethyl)-6-bromopyridin-2-yl)-2-(2-(3-acetyl-5-(2-methylpyrimidin-5-yl)-1H-indazol-1-yl)acetyl)-5-methyl-2-azabicyclo[3.1.0]hexane-3-carboxamide] | < 1
CC(=O)c1nn(CC(=O)N2[C@H](C(=O)Nc3nc(Br)ccc3C)C[C@@]3(c4cn(C(C)C)nn4)C[C@@H]23)c2ccc(-c3cnc(C)nc3)cc12 [Compound 309, (1R,3S,5S)-2-(2-(3-acetyl-5-(2-methylpyrimidin-5-yl)-1H-indazol-1-yl)acetyl)-N-(6-bromo-3-methylpyridin-2-yl)-5-(1-isopropyl-1H-1,2,3-triazol-4-yl)-2-azabicyclo[3.1.0]hexane-3-carboxamide] | < 1
CC(=O)c1nn(CC(=O)N2[C@H](C(=O)Nc3nc(Br)ccc3C)C[C@@]3(Cn4cccn4)C[C@@H]23)c2ccc(-c3cnc(C)nc3)cc12 [Compound 310, (1R,3S,5R)-5-((1H-Pyrazol-1-yl)methyl)-2-(2-(3-acetyl-5-(2-methylpyrimidin-5-yl)-1H-indazol-1-yl)acetyl)-N-(6-bromo-3-methylpyridin-2-yl)-2-azabicyclo[3.1.0]hexane-3-carboxamide] | < 1
CC(=O)c1nn(CC(=O)N2[C@H](C(=O)Nc3nc(Br)ccc3C)C[C@@]3(Cn4ccc(C(C)(C)C)n4)C[C@@H]23)c2ccc(-c3cnc(C)nc3)cc12 [Compound 311, (1R,3S,5R)-2-(2-(3-acetyl-5-(2-methylpyrimidin-5-yl)-1H-indazol-1-yl)acetyl)-N-(6-bromo-3-methylpyridin-2-yl)-5-((3-(tert-butyl)-1H-pyrazol-1-yl)methyl)-2-azabicyclo[3.1.0]hexane-3-carboxamide] | < 1
CC(=O)c1nn(CC(=O)N2[C@H](C(=O)Nc3nc(Br)ccc3C)C[C@@]3(Cn4cncn4)C[C@@H]23)c2ccc(-c3cnc(C)nc3)cc12 [Compound 312, (1R,3S,5R)-5-((1H-1,2,4-triazol-1-yl)methyl)-2-(2-(3-acetyl-5-(2-methylpyrimidin-5-yl)-1H-indazol-1-yl)acetyl)-N-(6-bromo-3-methylpyridin-2-yl)-2-azabicyclo[3.1.0]hexane-3-carboxamide] | < 1
CC(=O)c1nn(CC(=O)N2[C@H](C(=O)Nc3nc(Br)ccc3C)C[C@@]3(Cn4cncn4)C[C@@H]23)c2cnc(-c3cnc(C)nc3)cc12 [Compound 313, (1R,3S,5R)-5-((1H-1,2,4-triazol-1-yl)methyl)-2-(2-(3-acetyl-5-(2-methylpyrimidin-5-yl)-1H-pyrazolo[3,4-c]pyridin-1-yl)acetyl)-N-(6-bromo-3-methylpyridin-2-yl)-2-azabicyclo[3.1.0]hexane-3-carboxamide] | < 1
CC(=O)c1nn(CC(=O)N2[C@H](C(=O)Nc3nc(Br)ccc3C)C[C@@]3(Cn4cnc(C)c4)C[C@@H]23)c2ccc(-c3cnc(C)nc3)cc12 [Compound 314, (1R,3S,5R)-2-(2-(3-Acetyl-5-(2-methylpyrimidin-5-yl)-1H-indazol-1-yl)acetyl)-N-(6-bromo-3-methylpyridin-2-yl)-5-((4-methyl-1H-imidazol-1-yl)methyl)-2-azabicyclo[3.1.0]hexane-3-carboxamide] | < 1
CC(=O)c1nn(CC(=O)N2[C@@H](C(=O)Nc3nc(Br)ccc3C)C[C@@]3(Cn4cnc(C)c4)C[C@@H]23)c2ccc(-c3cnc(C)nc3)cc12 [Compound 315, (1R,3R,5R)-2-(2-(3-Acetyl-5-(2-methylpyrimidin-5-yl)-1H-indazol-1-yl)acetyl)-N-(6-bromo-3-methylpyridin-2-yl)-5-((4-methyl-1H-imidazol-1-yl)methyl)-2-azabicyclo[3.1.0]hexane-3-carboxamide] | 1 to 10
CCc1cc(-c2cnc(C)nc2)cc2c(C(C)=O)nn(CC(=O)N3[C@H](C(=O)Nc4nc(Br)ccc4C)C[C@@]4(CN(C)C)C[C@@H]34)c12 [Compound 316, (1R,3S,5R)-2-(2-(3-acetyl-7-ethyl-5-(2-methylpyrimidin-5-yl)-1H-indazol-1-yl)acetyl)-N-(6-bromo-3-methylpyridin-2-yl)-5-((dimethylamino)methyl)-2-azabicyclo[3.1.0]hexane-3-carboxamide] | < 1
CC(=O)c1nn(CC(=O)N2[C@H](C(=O)Nc3nc(Br)ccc3CN3CCC(C)(F)CC3)C[C@@]3(C)C[C@@H]23)c2ccc(-c3cnc(C)nc3)cc12 [Compound 322, (1R,3S,5R)-2-(2-(3-acetyl-5-(2-methylpyrimidin-5-yl)-1H-indazol-1-yl)acetyl)-N-(6-bromo-3-((4-fluoro-4-methylpiperidin-1-yl)methyl)pyridin-2-yl)-5-methyl-2-azabicyclo[3.1.0]hexane-3-carboxamide] | < 1
CC(=O)c1nn(CC(=O)N2[C@H](C(=O)Nc3nc(Br)ccc3C)C[C@@]3(CN(C)C)C[C@@H]23)c2c(C(F)CF)cc(-c3cnc(C)nc3)cc12 (stereo partly drawn) [Compound 325, (1R,3S,5R)-2-(2-(3-acetyl-7-(1,2-difluoroethyl)-5-(2-methylpyrimidin-5-yl)-1H-indazol-1-yl)acetyl)-N-(6-bromo-3-methylpyridin-2-yl)-5-((dimethylamino)methyl)-2-azabicyclo[3.1.0]hexane-3-carboxamide] | < 1
CC(=O)c1nn(CC(=O)N2[C@H](C(=O)Nc3nc(Br)ccc3C)C[C@@]3(CCC(F)F)C[C@@H]23)c2cnc(-c3cnc(C)nc3)cc12 [Compound 327] | < 1

same assay, conditions: Table 8; Factor D 80 nM, substrate Z-L-Lys-SBz; read-out: IC50

Compound | IC50 [µM]
CC(=O)c1nn(CC(=O)N2[C@H](C(=O)Nc3nc(Br)ccc3C)C[C@@]3(CN(C)C)C[C@@H]23)c2c(C3CC3)cc(-c3cnc(C)nc3)cc12 [Compound 317, (1R,3S,5R)-2-(2-(3-acetyl-7-cyclopropyl-5-(2-methylpyrimidin-5-yl)-1H-indazol-1-yl)acetyl)-N-(6-bromo-3-methylpyridin-2-yl)-5-((dimethylamino)methyl)-2-azabicyclo[3.1.0]hexane-3-carboxamide] | < 1
CC(=O)c1nn(CC(=O)N2[C@H](C(=O)Nc3nc(Br)ccc3C)C[C@@]3(CN(C)C)C[C@@H]23)c2c(C(F)(F)F)cc(-c3cnc(C)nc3)cc12 [Compound 318, (1R,3S,5R)-2-(2-(3-acetyl-5-(2-methylpyrimidin-5-yl)-7-(trifluoromethyl)-1H-indazol-1-yl)acetyl)-N-(6-bromo-3-methylpyridin-2-yl)-5-((dimethylamino)methyl)-2-azabicyclo[3.1.0]hexane-3-carboxamide] | < 1
